Results published in ChEMBL document CHEMBL4673275, “Synthesis and biological activity of (±)-7,3',4'-trihydroxyhomoisoflavan and its analogs” (Bioorg Med Chem Lett, 2021).
The source made the active and inactive calls. No cut-off for these calls is given here.

Tests used:
PC-12 [1] = experiment: Induction of neurite outgrowth in rat PC-12 cells at 1 to 30 uM incubated for 48 hrs in presence of NGF; assay type: functional, cell-based; conditions: dose 1-30 µM
PC-12 [2] = experiment: Induction of neurite outgrowth in rat PC-12 cells at 1 to 30 uM incubated for 48 hrs; assay type: functional, cell-based; conditions: dose 1-30 µM
[3] = target: Acetylcholinesterase (Homo sapiens) (UniProt P22303); experiment: Inhibition of AChE (unknown origin) at 1 to 25 uM; conditions: dose 1-25 µM
Sequence of Acetylcholinesterase (Homo sapiens) (P22303 whole entry): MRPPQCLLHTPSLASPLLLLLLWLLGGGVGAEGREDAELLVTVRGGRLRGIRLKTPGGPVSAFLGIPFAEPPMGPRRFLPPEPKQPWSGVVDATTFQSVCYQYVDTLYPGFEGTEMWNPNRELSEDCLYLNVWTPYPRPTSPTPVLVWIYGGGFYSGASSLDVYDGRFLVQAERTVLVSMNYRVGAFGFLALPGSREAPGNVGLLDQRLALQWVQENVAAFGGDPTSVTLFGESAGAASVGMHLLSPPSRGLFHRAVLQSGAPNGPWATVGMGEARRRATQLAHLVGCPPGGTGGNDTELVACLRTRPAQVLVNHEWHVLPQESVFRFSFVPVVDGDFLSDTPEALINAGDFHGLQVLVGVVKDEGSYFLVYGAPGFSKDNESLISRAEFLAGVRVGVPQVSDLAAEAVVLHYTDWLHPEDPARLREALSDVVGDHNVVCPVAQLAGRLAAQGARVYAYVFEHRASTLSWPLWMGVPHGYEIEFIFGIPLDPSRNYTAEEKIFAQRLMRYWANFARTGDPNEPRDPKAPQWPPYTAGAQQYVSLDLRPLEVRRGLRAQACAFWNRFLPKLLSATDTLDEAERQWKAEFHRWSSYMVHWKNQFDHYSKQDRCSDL

PC-12 [4] = experiment: Induction of neurite outgrowth in rat PC-12 cells assessed as cell elongation at 30 uM incubated for 48 hrs in presence of NGF; assay type: functional, cell-based

Oc1ccc(CC2COc3ccccc3C2)cc1 (stereo not drawn)
Activity (PC-12 [1]): Active
Activity (PC-12 [2]): inactive
inhibition [3]: inactive
Activity (PC-12 [4]): Active

Oc1ccc2c(c1)OCC(Cc1ccc(O)c(O)c1)C2 (racemic)
Activity (PC-12 [1]): Active
Activity (PC-12 [2]): inactive
inhibition [3]: Active
Activity (PC-12 [4]): Active

O=C(O)/C=C/c1ccc(O)c(O)c1
inhibition [3]: Active

Oc1ccc(CC2COc3ccccc3C2)cc1O (stereo not drawn)
Activity (PC-12 [1]): Active
Activity (PC-12 [2]): inactive
inhibition [3]: Active
Activity (PC-12 [4]): Active

CN(C)C(=O)Oc1cccc([N+](C)(C)C)c1
inhibition [3]: Active

O=c1c(Cc2ccc(O)c(O)c2)coc2ccccc12
Activity (PC-12 [1]): Active
Activity (PC-12 [2]): inactive
inhibition [3]: Active
Activity (PC-12 [4]): Active
